Measurements as given in patent US10426775B2, “Methods for treating Friedreich's ataxia with etravirine” (Fratagene Therapeutics srl, priority 2017, dated 2019).

Key:
mature frataxin = test: Western blot of frataxin in primary fibroblasts derived from FRDA patients; format: cell-based, human; conditions: 300 nM etravirine, 24 hours
Protocol: Lymphoblastoid cell lines from one healthy subject [GM16215] and 7 FRDA patients [GM16228, GM16203, GM16214, GM16223, GM16210, GM16205, GM16216], and primary fibroblasts from 2 FRDA patients [GM02816 and GM04078], were obtained from NIGMS Human Genetic Cell Repository, Coriell Institute for Medical Research (Camden, N.J., USA). Lymphoblasts and fibroblasts were grown at 37° C. and 5% CO2 and were respectively cultured in RPMI or DMEM, supplemented with 15% FBS, […] penicillin/streptomycin and 2 mM L-glutamine.
For the validation steps, etravirine (TMC125) was purchased from Selleckchem and was dissolved in DMSO at a stock concentration of 10 mM. […]
Total cell extracts were prepared in lysis buffer (50 mM Tris-HCl, pH 7.5, 150 mM NaCl, 1% Igepal CA-630, 5 mM EDTA, 5 mM EGTA) supplemented with complete protease inhibitor cocktail (Roche Diagnostics, Indianapolis, Ind., USA). […] The immunoreactive bands were detected by ECL (GE Healthcare, Chalfont St. Giles, UK) and imaged with a ChemiDoc XRS system (Bio-Rad). […] All values are expressed as means±1 S.E.M.
We chose the minimal effective dose (300 nM) to evaluate the efficacy of etravirine over a broad range of cells derived from FRDA patients. In particular, we analysed 7 lymphoblastoid cell lines derived from FRDA patients and primary fibroblasts derived from two different FRDA patients. […]

aconitase = test: Aconitase activity in FRDA lymphoblast extracts (spectrophotometric, 340 nm); format: cell-based, human; conditions: GM16214 lymphoblasts, 500 nM etravirine, after 48 hours, compared with GM16215
Protocol: Whole-cell extracts from GM16215 lymphoblasts, GM16214 lymphoblasts and GM16214 lymphoblasts treated with etravirine were prepared in ice-cold CelLytic M buffer (Sigma-Aldrich) supplemented with 2 mM sodium citrate and Complete EDTA-free protease inhibitor cocktail (Roche Diagnostic). Spectrophotometric aconitase assays were performed at 25° C. with 100 μg of cell extracts using the BIOXYTECH Aconitase-340™ Assay (OxisResearch™ 21041). Spectrophotometric citrate synthase activities were assessed at 25° C. with 10-20 μg of cell extracts using the Citrate Synthase Assay Kit (Sigma-Aldrich CS0720). […] For the calculation of the activities, one unit of enzyme was expressed as the amount of protein that converted 1 μmol of substrate per minute at 25° C. Quantitative data are presented as mean±SEM of at least three independent experiments.
To further explore the therapeutic potential of etravirine, we considered its ability to correct some of the defects associated with frataxin loss in cells derived from patients. […] To evaluate whether the increase in frataxin levels promoted by etravirine treatment is sufficient to restore ISC biogenesis in FRDA patient-derived cells, we measured the activity of aconitase upon etravirine treatment and compared it to the activity observed in cells derived from the healthy carrier parent. […]

For Cc1cc(C#N)cc(C)c1Oc1nc(Nc2ccc(C#N)cc2)nc(N)c1Br [etravirine], the “average fold increase in mature frataxin levels” value (mature frataxin; GM03816 fibroblasts (380 GAA repeats)) was 1.65 fold, the “average fold increase in mature frataxin levels” value (mature frataxin; GM04078 fibroblasts (541 GAA repeats)) was 1.71 fold and the “aconitase activity in FRDA cells” value (aconitase) was “restore aconitase activity”.
